US12595266B2, “Pesticidally active heterocyclic derivatives with sulfur containing substituents” (SYNGENTA CROP PROTECTION AG, priority 2020, dated 2026)

How the values were obtained:
Format in all cases: in vivo
[1] = test system: Myzus persicae (Green Peach Aphid); assay: Activity against Myzus persicae (green peach aphid), feeding/contact activity; settings: foliar, 144 h, application rate of 200 ppm, sunflower leaf discs sprayed, aphid population of mixed ages, 6 days after infestation
Protocol: Example B6: Activity Against Myzus persicae (Green Peach Aphid) Feeding/Contact Activity
Sunflower leaf discs were placed onto agar in a 24-well microtiter plate and sprayed with aqueous test solutions prepared from 10′000 ppm DMSO stock solutions. After drying, the leaf discs were infested with an aphid population of mixed ages. The samples were assessed for mortality 6 days after infestation.

[2] = test system: Spodoptera littoralis (Egyptian Cotton Leaf Worm); assay: Activity against Spodoptera littoralis (Egyptian cotton leaf worm); settings: foliar, 72 h, application rate of 200 ppm, cotton leaf discs sprayed, L1 larvae, 3 days after infestation, read-out: control (at least one of mortality, anti-feedant effect, growth inhibition)
Protocol: Example B8: Activity Against Spodoptera littoralis (Egyptian Cotton Leaf Worm)
Cotton leaf discs were placed onto agar in 24-well microtiter plates and sprayed with aqueous test solutions prepared from 10′000 ppm DMSO stock solutions. After drying the leaf discs were infested with five L1 larvae. The samples were assessed for mortality, anti-feeding effect, and growth inhibition in comparison to untreated samples 3 days after infestation. Control of Spodoptera littoralis by a test sample is given when at least one of the categories mortality, anti-feedant effect, and growth inhibition is higher than the untreated sample.

[3] = test system: Plutella xylostella (Diamond Back Moth); assay: Activity against Plutella xylostella (diamond back moth); settings: 192 h, application rate of 200 ppm, artificial diet, Plutella eggs, 8 days after infestation, read-out: effect in at least one of the two categories (mortality or growth inhibition)
Protocol: Example B7: Activity Against Plutella xylostella (Diamond Back Moth)
24-well microtiter plates with artificial diet were treated with aqueous test solutions prepared from 10′000 ppm DMSO stock solutions by pipetting. After drying, Plutella eggs were pipetted through a plastic stencil onto a gel blotting paper and the plate was closed with it. The samples were assessed for mortality and growth inhibition in comparison to untreated samples 8 days after infestation.

[4] = test system: Chilo suppressalis (Striped Rice Stemborer); assay: Activity against Chilo suppressalis (striped rice stemborer); settings: 144 h, application rate of 200 ppm, artificial diet, L2 larvae, 6 days after infestation, read-out: control (at least one of mortality, anti-feedant effect, growth inhibition)
Protocol: Example B2: Activity Against Chilo suppressalis (Striped Rice Stemborer)
24-well microtiter plates with artificial diet were treated with aqueous test solutions prepared from 10′000 ppm DMSO stock solutions by pipetting. After drying, the plates were infested with L2 larvae (6-8 per well). The samples were assessed for mortality, anti-feeding effect, and growth inhibition in comparison to untreated samples 6 days after infestation. Control of Chilo suppressalis by a test sample is given when at least one of the categories mortality, anti-feedant effect, and growth inhibition is higher than the untreated sample.

[5] = test system: Bemisia tabaci (Cotton White Fly); assay: Activity against Bemisia tabaci (cotton white fly), feeding/contact activity; settings: foliar, 144 h, application rate of 200 ppm, cotton leaf discs sprayed, adult white flies, 6 days after incubation
Protocol: Example B1: Activity Against Bemisia tabaci (Cotton White Fly) Feeding/Contact Activity
Cotton leaf discs were placed on agar in 24-well microtiter plates and sprayed with aqueous test solutions prepared from 10′000 ppm DMSO stock solutions. After drying the leaf discs were infested with adult white flies. The samples were checked for mortality 6 days after incubation.

[6] = test system: Diabrotica balteata (Corn Root Worm); assay: Activity against Diabrotica balteata (corn root worm); settings: 96 h, application rate of 200 ppm, maize sprouts sprayed, L2 larvae, 4 days after infestation, read-out: effect in at least one of the two categories (mortality or growth inhibition)
Protocol: Example B3: Activity Against Diabrotica balteata (Corn Root Worm)
Maize sprouts placed onto an agar layer in 24-well microtiter plates were treated with aqueous test solutions prepared from 10′000 ppm DMSO stock solutions by spraying. After drying, the plates were infested with L2 larvae (6 to 10 per well). The samples were assessed for mortality and growth inhibition in comparison to untreated samples 4 days after infestation.

[7] = test system: Carpocapsa (Cydia) Pomonella (Codling Moth); assay: Activity against Carpocapsa (Cydia) pomonella (codling moth), larvicide, feeding/contact; settings: 336 h, application rate of 12.5 ppm, paraffin-coated diet cubes sprayed, L1 larvae, 14 days after infestation, 26-27° C.
Protocol: Example B10: Activity Against Carpocapsa (Cydia) Pomonella (Codling Moth) Larvicide, Feeding/Contact
Diet cubes coated with paraffin were sprayed with diluted test solutions in an application chamber. After drying off the treated cubes (10 replicates) were infested with 1 L1 larvae. Samples were incubated at 26-27° C. and checked 14 days after infestation for mortality and growth inhibition.

[8] = test system: Euschistus heros (Neotropical Brown Stink Bug); assay: Activity against Euschistus heros (neotropical brown stink bug); settings: 120 h, application rate of 200 ppm, soybean leaves sprayed, N2 nymphs, 5 days after infestation, read-out: effect in at least one of the two categories (mortality or growth inhibition)
Protocol: Example B4: Activity Against Euschistus heros (Neotropical Brown Stink Bug)
Soybean leaves on agar in 24-well microtiter plates were sprayed with aqueous test solutions prepared from 10′000 ppm DMSO stock solutions. After drying the leaves were infested with N2 nymphs. The samples were assessed for mortality and growth inhibition in comparison to untreated samples 5 days after infestation.

[9] = test system: Myzus persicae (Green Peach Aphid); assay: Activity against Myzus persicae (green peach aphid), systemic activity; settings: 144 h, test rate of 24 ppm, roots of infested pea seedlings in test solution (systemic), 6 days
Protocol: Example B9: Activity Against Myzus persicae (Green Peach Aphid) Systemic Activity
Roots of pea seedlings infested with an aphid population of mixed ages were placed directly into aqueous test solutions prepared from 10′000 DMSO stock solutions. The samples were assessed for mortality 6 days after placing seedlings into test solutions.

CCS(=O)(=O)c1cc(C2(C#N)CC2)cnc1N1Cc2cc3c(cc2C1=O)OC(F)(F)O3 [Compound P1, 1-[6-(2,2-difluoro-7-oxo-5H-[1,3]dioxolo[4,5-f]isoindol-6-yl)-5-ethylsulfonyl-3-pyridyl]cyclopropanecarbonitrile]
≥ 80%: mortality at 200 ppm [1] | percent control (mortality, anti-feedant effect or growth inhibition) at 200 ppm [2] | percent effect (mortality or growth inhibition) at 200 ppm [3] | percent control (mortality, anti-feedant effect or growth inhibition) at 200 ppm [4] | mortality at 200 ppm [5] | percent effect (mortality or growth inhibition) at 200 ppm [6] | mortality at 12.5 ppm [7] | percent effect (mortality or growth inhibition) at 200 ppm [8]

CCS(=O)(=O)c1c(N2Cc3cc4c(cc3C2=O)OC(F)(F)O4)nc(-c2cnn(CC3CC3)c2)n1C [Compound P9, 6-[2-[1-(cyclopropylmethyl)pyrazol-4-yl]-5-ethylsulfonyl-1-methyl-imidazol-4-yl]-2,2-difluoro-5H-[1,3]dioxolo[4,5-f]isoindol-7-one]
≥ 80%: mortality at 200 ppm [1] | percent control (mortality, anti-feedant effect or growth inhibition) at 200 ppm [2] | percent effect (mortality or growth inhibition) at 200 ppm [3] | percent control (mortality, anti-feedant effect or growth inhibition) at 200 ppm [4] | percent effect (mortality or growth inhibition) at 200 ppm [6] | percent effect (mortality or growth inhibition) at 200 ppm [8] | mortality at 24 ppm [9]

CCS(=O)(=O)c1c(N2Cc3cc4c(cc3C2=O)OC(F)(F)O4)nc(-c2cnn(CC(F)(F)F)c2)n1C [Compound P14, 6-[5-ethylsulfonyl-1-methyl-2-[1-(2,2,2-trifluoroethyl)pyrazol-4-yl]imidazol-4-yl]-2,2-difluoro-5H-[1,3]dioxolo[4,5-f]isoindol-7-one]
≥ 80%: mortality at 200 ppm [1] | percent control (mortality, anti-feedant effect or growth inhibition) at 200 ppm [2] | percent effect (mortality or growth inhibition) at 200 ppm [3] | percent control (mortality, anti-feedant effect or growth inhibition) at 200 ppm [4] | percent effect (mortality or growth inhibition) at 200 ppm [6] | percent effect (mortality or growth inhibition) at 200 ppm [8] | mortality at 24 ppm [9]

CCS(=O)(=O)c1c(N2Cc3cc4c(cc3C2=O)OC(F)(F)O4)nc(-c2ncccn2)n1C [Compound P15, 6-(5-ethylsulfonyl-1-methyl-2-pyrimidin-2-yl-imidazol-4-yl)-2,2-difluoro-5H-[1,3]dioxolo[4,5-f]isoindol-7-one]
≥ 80%: mortality at 200 ppm [1] | percent control (mortality, anti-feedant effect or growth inhibition) at 200 ppm [2] | percent effect (mortality or growth inhibition) at 200 ppm [3] | percent control (mortality, anti-feedant effect or growth inhibition) at 200 ppm [4] | percent effect (mortality or growth inhibition) at 200 ppm [6] | percent effect (mortality or growth inhibition) at 200 ppm [8] | mortality at 24 ppm [9]

CCS(=O)(=O)c1ccc(-c2ncccn2)nc1N1Cc2cc3c(cc2C1=O)OC(F)(F)O3 [Compound P16, 6-(3-ethylsulfonyl-6-pyrimidin-2-yl-2-pyridyl)-2,2-difluoro-5H-[1,3]dioxolo[4,5-f]isoindol-7-one]
≥ 80%: mortality at 200 ppm [1] | percent control (mortality, anti-feedant effect or growth inhibition) at 200 ppm [2] | percent effect (mortality or growth inhibition) at 200 ppm [3] | percent control (mortality, anti-feedant effect or growth inhibition) at 200 ppm [4] | percent effect (mortality or growth inhibition) at 200 ppm [6] | percent effect (mortality or growth inhibition) at 200 ppm [8] | mortality at 24 ppm [9]

CCS(=O)(=O)c1c(N2Cc3cc4c(cc3C2=O)OC(F)(F)O4)nc(-c2cnn(C(F)F)c2)n1C [Compound P20, 6-[2-[1-(difluoromethyl)pyrazol-4-yl]-5-ethylsulfonyl-1-methyl-imidazol-4-yl]-2,2-difluoro-5H-[1,3]dioxolo[4,5-f]isoindol-7-one]
≥ 80%: percent control (mortality, anti-feedant effect or growth inhibition) at 200 ppm [2] | percent effect (mortality or growth inhibition) at 200 ppm [3] | percent control (mortality, anti-feedant effect or growth inhibition) at 200 ppm [4] | mortality at 200 ppm [5] | percent effect (mortality or growth inhibition) at 200 ppm [6] | percent effect (mortality or growth inhibition) at 200 ppm [8]

CCS(=O)(=O)c1cc(C(C)(C)C#N)cnc1N1Cc2cc3c(cc2C1=O)OC(F)(F)O3 [Compound P22, 2-[6-(2,2-difluoro-7-oxo-5H-[1,3]dioxolo[4,5-f]isoindol-6-yl)-5-ethylsulfonyl-3-pyridyl]-2-methyl-propanenitrile]
≥ 80%: percent control (mortality, anti-feedant effect or growth inhibition) at 200 ppm [2] | percent effect (mortality or growth inhibition) at 200 ppm [3] | percent control (mortality, anti-feedant effect or growth inhibition) at 200 ppm [4] | mortality at 200 ppm [5] | percent effect (mortality or growth inhibition) at 200 ppm [6] | mortality at 12.5 ppm [7] | percent effect (mortality or growth inhibition) at 200 ppm [8]

CCS(=O)(=O)c1cc(C(C)(F)F)cnc1N1Cc2cc3c(cc2C1=O)OC(F)(F)O3 [Compound P23, 6-[5-(1,1-difluoroethyl)-3-ethylsulfonyl-2-pyridyl]-2,2-difluoro-5H-[1,3]dioxolo[4,5-f]isoindol-7-one]
≥ 80%: percent control (mortality, anti-feedant effect or growth inhibition) at 200 ppm [2] | percent effect (mortality or growth inhibition) at 200 ppm [3] | percent control (mortality, anti-feedant effect or growth inhibition) at 200 ppm [4] | mortality at 200 ppm [5] | mortality at 12.5 ppm [7]

CCS(=O)(=O)c1c(N2Cc3cc4c(cc3C2=O)OC(F)(F)O4)nc(C2CC2)n1C [Compound P24, 6-(2-cyclopropyl-5-ethylsulfonyl-1-methyl-imidazol-4-yl)-2,2-difluoro-5H-[1,3]dioxolo[4,5-f]isoindol-7-one]
≥ 80%: mortality at 200 ppm [1] | percent control (mortality, anti-feedant effect or growth inhibition) at 200 ppm [2] | percent effect (mortality or growth inhibition) at 200 ppm [3] | percent control (mortality, anti-feedant effect or growth inhibition) at 200 ppm [4] | percent effect (mortality or growth inhibition) at 200 ppm [6] | percent effect (mortality or growth inhibition) at 200 ppm [8] | mortality at 24 ppm [9]

CCS(=O)(=O)c1cc(OC(C)(C)C#N)cnc1N1Cc2cc3c(cc2C1=O)OC(F)(F)O3 [Compound P25, 2-[[6-(2,2-difluoro-7-oxo-5H-[1,3]dioxolo[4,5-f]isoindol-6-yl)-5-ethylsulfonyl-3-pyridyl]oxy]-2-methyl-propanenitrile]
≥ 80%: mortality at 200 ppm [1] | percent control (mortality, anti-feedant effect or growth inhibition) at 200 ppm [2] | percent effect (mortality or growth inhibition) at 200 ppm [3] | percent control (mortality, anti-feedant effect or growth inhibition) at 200 ppm [4] | mortality at 200 ppm [5] | percent effect (mortality or growth inhibition) at 200 ppm [6] | mortality at 12.5 ppm [7] | percent effect (mortality or growth inhibition) at 200 ppm [8]
